{"source": "patent US5900414A", "about": "“Methods for administering integrin receptor antagonists” (Merck & Co., Inc., priority 1997, dated 1999)", "origin": "cited, not measured here", "key": {"[1]": {"details": "prodrug"}}, "note": "Positions of bridges follow the written chain, without caps; N, C: chain ends. Non-standard residues stand in square brackets, D forms with d. Residues, ends and D or L forms follow the SMILES beside them. hArg = N=C(N)NCCCC[C@H](N)C(=O)O; Mpa = O=C(O)CCS"}
{"smiles": "N=C(N)c1ccc(C(=O)N[C@@H](Cc2ccc(O)cc2)C(=O)N2CCC(OCC(=O)O)CC2)cc1", "note": "[Ro 44-9883]", "values": [{"measurement": "selectivity for GPIIb/IIIa", "setting": "GPIIb/IIIa", "result": "selective for GPIIb/IIIa"}]}
{"smiles": "N=C(N)NCCCC[C@@H]1NC(=O)CCSSC[C@@H](C(N)=O)NC(=O)[C@@H]2CCCN2C(=O)[C@H](Cc2c[nH]c3ccccc23)NC(=O)[C@H](CC(=O)O)NC(=O)CNC1=O", "note": "[Integrilin] ([Mpa][hArg]GDWPC-NH2; disulfide 1-7)", "values": [{"measurement": "ligand binding to GPIIa/IIIa", "setting": "GPIIa/IIIa", "result": "inhibits ligand binding"}, {"measurement": "effect on ligand binding to αv β3", "setting": "αv β3", "result": "very little effect"}]}
{"smiles": "C#C[C@H](CC(=O)OCC)NC(=O)CCC(=O)Nc1ccc(C(=N)N)cc1", "note": "[SC54684]", "values": [{"measurement": "oral bioavailability", "setting": "[1]", "result": "high oral bioavailability"}]}
{"smiles": "CCCCS(=O)(=O)N[C@@H](Cc1ccc(OCCCCC2CCNCC2)cc1)C(=O)O", "note": "[MK-383]", "values": [{"measurement": "selectivity for GPIIb/IIIa", "setting": "GPIIb/IIIa", "result": "selective for GPIIb/IIIa"}]}
